For series [1], the system named is glioblastoma tumors. Nature of the series: Intracranial glioblastoma tumor growth with or without irradiation (bioluminescence imaging). In kind it is in vivo, mouse. How it is done:
Tumor growth was analyzed by using an IVIS in vivo imaging system (Caliper Life Sciences, Hopkinton, Mass.) to monitor the bioluminescence imaging of brain tumor.
AMD3100 (Sigma-Aldrich) was prepared in sterile saline.
After tumor inoculation on brain, carragenan treatment was done every five days.

A short description of series [2]: Body weight monitoring during drug treatment to assess side effects. Particulars: for loss in body weight during treatment: mice.
For series [3] the following is noted: mouse, in vivo.
Series [4] concerns CD45+CD11b+ and CD45+F4/80+ cells. The experiment in a line: Immunostaining of brain samples for BM-derived myelomonocytic cells in glioblastoma tumors. In kind it is in vivo, mouse. Conditions: irradiation plus drug; harvested 18 days after irradiation. The text has this: Primary antibodies for immunofluorescent staining included a rat monoclonal CD31/PECAM-1 (MEC13.3; BD Pharmingen, San Diego, Calif.), a rabbit polyclonal GFP antibody (Invitrogen, Eugene, Oreg.), a rabbit polyclonal MMP-9 (Abeam, Cambridge, Mass.), a biotinylated CD11b/macrophage-associated antigen-1α (M1/70; BD Pharmingen), a biotinylated CD11c (HL3; BD Pharmingen), a biotinylated Gr-1/Ly-6C (RB6-8C5; BD Pharmingen), rat monoclonal F4/80 (A3-1, Gnetex, Irvine, Calif.), and CD45 (BD Pharmingen). Anti phosphorylated CXCR-4 polyclonal antibody was obtained from Dr. J B Rubbin at Washington University.
Unless otherwise indicated, […] frozen sections of tumors were dried in air, hydrated with PBS, blocked with 5% goat serum in PBS (containing 0.03% Triton X-100) for 30 min, and incubated with primary antibodies for 2 hr at room temperature (RT). Sections were washed three times in PBS, followed by secondary antibody for 1 hr at RT. For glioblastomas, 5 μm frozen sections of tumors were dried in air, hydrated with PBS, blocked with 5% goat serum in PBS (containing 0.03% Triton X-100) for 30 min, and incubated with primary antibodies over night at 4° C. Sections were washed three times in PBS, followed by secondary antibody for 40 min at room temperature. […]

The test system of series [5] is MT1A2 tumors. The experiment in a line: MT1A2 tumor growth on pre-irradiated tissues of BM-transplanted mice. Particulars: 100 μg/kg intraperitoneally once per day for up to 6 weeks.

Read-outs that look alike come from different tables or passages of the source.

With `c1cc(CN2CCCNCCNCCCNCC2)ccc1CN1CCCNCCNCCCNCC1` [AMD3100], the “growth of irradiated tumors” value is recorded as “significantly inhibited” in series [1] (early tumor model, 2 Gy five times from day 11, drug for three weeks) and “significantly inhibited” in series [1] (late tumor model, 15 Gy on day 21, drug for three weeks). Also, the “loss in body weight during treatment” value in series [2] is “did not show any significant loss in the weight”.
With carrageenan, in series [1] (treated 1, 3 and 7 days prior to implantation, then every five days, 15 Gy on day 26), the “growth of irradiated tumors” value is given as “significantly inhibited”. Besides, in series [3], the “loss in body weight during treatment” value is listed as “did not show any significant loss in the weight”.
On to `N#Cc1ccc(/C=C/C(=O)O)cc1` [NSC-134754], for which, in series [1] (irradiation on day 20 plus drug daily for three weeks), the post-irradiation tumor growth result is “decreased post-irradiation tumor growth”. In series [4], the “CD45+CD11b+ cells in glioblastoma tumors” value is “absence” and the “CD45+F4/80+ cells in glioblastoma tumors” value is on record as “absence”. Moreover, the “loss in body weight during treatment” value in series [2] is recorded as “did not show any significant loss in the weight”.
For `O=P(O)(O)C(O)(Cn1ccnc1)P(=O)(O)O` [ZA, aminobisphosphonate zolendronic acid], the “loss in weight during treatment” value in series [2] (treated every day) was “less than 10 % of body weight”. Besides, in series [5] (MMP-9 KO+WT BM mice), the “tumor growth on the irradiated site” value was “significant inhibition of tumor growth”. Moreover, the “tumor growth on pre-irradiated tissues” value in series [5] (WT+KO BM mice) is listed as “no effect on tumor growth”.
